Reference: the supplement of paper PMC5908809

Columns and labels:
[1] = tested on: normal NK cells expanded with K562-aAPC; assay: percent inhibition of viability; higher = more inhibition; conditions: 72 h, IL-2 2.5 ng/mL
Protocol: (§1)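 Drug sensitivity and resistance testing on K562-aAPC-expanded normal NK cells: 5 concentrations (10-fold steps over a 10,000-fold range), 72 h at 37 °C, viability by CellTiter-Glo normalised to DMSO and benzethonium chloride controls; DSS from the fitted curve.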

[2] = tested on: normal NK cells expanded with K562-aAPC; assay: drug sensitivity score (DSS) (DSS units); higher = more sensitive; extreme values may be limits of the assay; conditions: 72 h; IL-2 2.5 ng/mL
Protocol: as §1

NK-YS (IL-2 2.5 ng/mL) [3] = assay: as above; conditions: 72 h
YT (IL-2 2.5 ng/mL) [4] = assay: as above; conditions: 72 h
DERL-7 (IL-2 2.5 ng/mL) [5] = assay: as above; conditions: 72 h
[6] = tested on: normal primary NK cells, pool 2 (3 donors) (IL-2 2.5 ng/mL); assay: as above; conditions: 72 h
[7] = tested on: normal primary NK cells, pool 1 (3 donors) (IL-2 2.5 ng/mL); assay: as above; conditions: 72 h
KAI3 (IL-2 2.5 ng/mL) [8] = assay: as above; conditions: 72 h
KHYG-1 (IL-2 2.5 ng/mL) [9] = assay: as above; conditions: 72 h
IMC-1 (IL-2 20 ng/mL) [10] = assay: as above; conditions: 72 h
[11] = tested on: normal primary NK cells, pool 1 (3 donors), resting (IL-2 0 ng/mL); assay: as above; conditions: 72 h
NKL (IL-2 2.5 ng/mL) [12] = assay: as above; conditions: 72 h
NK-92 (IL-2 2.5 ng/mL) [13] = assay: as above; conditions: 72 h
SNK-6 (IL-2 2.5 ng/mL) [14] = assay: as above; conditions: 72 h
[15] = tested on: normal primary NK cells, pool 3 (3 donors) (IL-2 2.5 ng/mL); assay: as above; conditions: 72 h
NK-YS (IL-2 2.5 ng/mL) [16] = assay: percent inhibition of viability; higher = more inhibition; conditions: 72 h
YT (IL-2 2.5 ng/mL) [17] = assay: as above; conditions: 72 h
DERL-7 (IL-2 2.5 ng/mL) [18] = assay: as above; conditions: 72 h
[19] = tested on: normal primary NK cells, pool 2 (3 donors) (IL-2 2.5 ng/mL); assay: as above; conditions: 72 h
[20] = tested on: normal primary NK cells, pool 1 (3 donors) (IL-2 2.5 ng/mL); assay: as above; conditions: 72 h
KAI3 (IL-2 2.5 ng/mL) [21] = assay: as above; conditions: 72 h
KHYG-1 (IL-2 2.5 ng/mL) [22] = assay: as above; conditions: 72 h
IMC-1 (IL-2 20 ng/mL) [23] = assay: as above; conditions: 72 h
[24] = tested on: normal primary NK cells, pool 1 (3 donors), resting (IL-2 0 ng/mL); assay: as above; conditions: 72 h
NKL (IL-2 2.5 ng/mL) [25] = assay: as above; conditions: 72 h
NK-92 (IL-2 2.5 ng/mL) [26] = assay: as above; conditions: 72 h
SNK-6 (IL-2 2.5 ng/mL) [27] = assay: as above; conditions: 72 h
[28] = tested on: normal primary NK cells, pool 3 (3 donors) (IL-2 2.5 ng/mL); assay: as above; conditions: 72 h

COc1ccc2c(OCc3nnc4ccc(-c5ccccc5)nn34)ccnc2c1 [AMG-208] (max concentration tested 2500 nM)
percent inhibition of viability [%]
Conditions	0.25 nM	2.5 nM	25 nM	250 nM	2500 nM
DERL-7 (IL-2 2.5 ng/mL) [18]	-3.09	-8.21	-1.7	-5.84	-4.71
IMC-1 (IL-2 20 ng/mL) [23]	-1.21	1.46	1.28	6.67	11.1
KAI3 (IL-2 2.5 ng/mL) [21]	-0.14	-2.19	-6.54	1.34	11.6
KHYG-1 (IL-2 2.5 ng/mL) [22]	-2.14	0.21	1.18	6.23	15.6
NK-92 (IL-2 2.5 ng/mL) [26]	0.24	-14.7	-6.65	10.4	13.1
NK-YS (IL-2 2.5 ng/mL) [16]	-3.94	-3.82	-0.96	1.47	6.08
NKL (IL-2 2.5 ng/mL) [25]	-4.88	-0.72	5.74	1.87	1.01
SNK-6 (IL-2 2.5 ng/mL) [27]	2.2	11.6	22.9	28.1	18.8
YT (IL-2 2.5 ng/mL) [17]	1.44	4.97	5.31	10	12.4
[1]	-4.22	-2.93	1.22	-1.02	9.46
[19]	-3.74	-5.68	4.86	9.98	4.41
[20]	0.88	0.76	0.54	1.27	4.15
[24]	-15.8	-2.94	7.27	3.54	-2.41
[28]	-8.14	-5.89	5.5	0.46	5.72

Conditions	drug sensitivity score
DERL-7 (IL-2 2.5 ng/mL) [5]	0.89
IMC-1 (IL-2 20 ng/mL) [10]	0.02
KAI3 (IL-2 2.5 ng/mL) [8]	0.07
KHYG-1 (IL-2 2.5 ng/mL) [9]	0.59
NK-92 (IL-2 2.5 ng/mL) [13]	0.61
NK-YS (IL-2 2.5 ng/mL) [3]	0
NKL (IL-2 2.5 ng/mL) [12]	0
SNK-6 (IL-2 2.5 ng/mL) [14]	7.74
YT (IL-2 2.5 ng/mL) [4]	0.16
[2]	0
[6]	0
[7]	0
[11]	0
[15]	0

C=CCn1c(=O)c2cnc(Nc3ccc(N4CCN(C)CC4)cc3)nc2n1-c1cccc(C(C)(C)O)n1 [MK1775] (max concentration tested 10000 nM)
percent inhibition of viability [%]
Conditions	1 nM	10 nM	100 nM	1000 nM	10000 nM
DERL-7 (IL-2 2.5 ng/mL) [18]	0.66	0.03	17.1	97.5	92.2
IMC-1 (IL-2 20 ng/mL) [23]	-5.81	-5.29	-4.21	96.3	99
KAI3 (IL-2 2.5 ng/mL) [21]	-0.83	7.57	45.7	91.1	90.4
KHYG-1 (IL-2 2.5 ng/mL) [22]	-2.16	1.16	78.7	102	98.7
NK-92 (IL-2 2.5 ng/mL) [26]	4.45	-1.85	53.5	98.9	97.4
NK-YS (IL-2 2.5 ng/mL) [16]	-5.73	-7.13	10.9	92.7	94.9
NKL (IL-2 2.5 ng/mL) [25]	-16	4.83	68.4	94.3	64.4
SNK-6 (IL-2 2.5 ng/mL) [27]	-5.66	-15.9	26.5	92.5	96.4
YT (IL-2 2.5 ng/mL) [17]	1.53	1.29	16.2	98.3	98.1
[1]	-4.38	-1.43	28.4	50.9	65.7
[19]	-15.1	-7.74	-2.34	4.19	34.3
[20]	-14.7	-12.2	-5.81	9.3	42.5
[24]	-1.92	-3.22	7.91	4.91	-27.9
[28]	-17.6	-4.31	-8.03	5.21	17.9

Conditions	drug sensitivity score
DERL-7 (IL-2 2.5 ng/mL) [5]	20.4
IMC-1 (IL-2 20 ng/mL) [10]	17.1
KAI3 (IL-2 2.5 ng/mL) [8]	21.8
KHYG-1 (IL-2 2.5 ng/mL) [9]	27.1
NK-92 (IL-2 2.5 ng/mL) [13]	24.3
NK-YS (IL-2 2.5 ng/mL) [3]	18.8
NKL (IL-2 2.5 ng/mL) [12]	25.5
SNK-6 (IL-2 2.5 ng/mL) [14]	21
YT (IL-2 2.5 ng/mL) [4]	20.4
[2]	13
[6]	2.29
[7]	3.64
[11]	0
[15]	1.01
